Legend:
hGLP-1 receptor = biological target: T1, hGLP-1 receptor (Homo sapiens, UniProt P43220); experiment: Agonist activity against GLP-1 receptor (CRE-luciferase reporter, ONE-Glo Luciferase Assay System); assay type: cell-based; conditions: CHO-K1/CRE-luc/hGLP-1 receptor cells; 5 h incubation with compound; chemiluminescence readout
T1 construct: expressed in transfected cells; host or cells: CHO-K1 (stably transfected with hGLP-1 receptor plasmid and CRE-luc plasmid)
Source text: This experiment was intended to test the agonist activity of compound molecules against hGLP-1 receptor and evaluate the in vitro activity of the molecules according to EC50. In this experiment, ONE-Glo™ Luciferase Assay System (ONE-Glo™ Luciferase Assay System, Promega, E6110) was used. Under the action of the compound molecules, GLP-1R downstream signaling pathways were activated to cause elevated cAMP level. The binding of cAMP to CRE could initiate the transcriptional expression of a CRE downstream luciferase gene. The luciferase could emit fluorescence when reacting with a substrate thereof. The fluorescence signal, which reflected the activity of the compound for agonizing GLP-1 receptor, was measured by means ONE-Glo™ reagent.
A stably transfected CHO-K1/CRE-luc/hGLP-1 receptor cell strain (hGLP-1 receptor plasmid constructed in-house and CRE-luc plasmid Promega E8471) was constructed. CHO-K1/CRE-luc/hGLP-1 receptor cells were digested, centrifuged, and then resuspended. The single cell suspension was uniformly mixed and adjusted to a viable cell density of 2.78 × 10^5 cells/ml with a cell culture medium (DME/F-12 + 10% FBS). The resulting solution was added to a 96-well cell culture plate at 90 µL/well (Corning, #3903). The culture plate was incubated in an incubator for 16 h (37°C, 5% CO2).
The compound was dissolved in DMSO to prepare a stock solution with an initial concentration of 20 mM. The starting concentration of the small molecule compound was 0.02 mM. The compound was subjected to 3-fold dilution for 10 points, wherein the 11th point was DMSO. Another 96-well plate was taken, to which was added 95 µL/well of a cell culture medium (DME/F-12 + 10% FBS), followed by 5 µL/well of test samples with different concentrations. The mixtures were uniformly mixed. Next, 10 µL/well of test samples with different concentrations were added to the cell culture plate, with two duplicate wells for each sample. The culture plate was incubated in an incubator for 5 h (37°C, 5% CO2). The 96-well cell culture plate was taken out. 100 µL/well of ONE-Glo™ reagent was added, followed by incubation at room temperature for 10 minutes. Chemiluminescence was measured in and by a microplate reader (PHERAstar FS, BMG labtech).
Data were processed and analyzed using Microsoft Excel and Graphpad Prism 10. EC50 values of the compounds were obtained. Table 1. Agonist activity of the compounds of the present invention against hGLP-1 receptor

[1] = Pharmacokinetic evaluation in monkeys after intragastric gavage (plasma LC-MS/MS); assay type: in vivo; conditions: both sexes, cynomolgus monkey, po, i.g., 1 mg/kg
Protocol: Using cynomolgus monkeys as test animals, the plasma concentrations of the example compounds at different time points were determined by an LC-MS/MS method following administration to the monkeys by intragastric gavage (i.g.). The pharmacokinetic behaviors of the compounds of the present invention in monkeys were investigated, and the pharmacokinetic profiles thereof were evaluated.
Compound 9: Three cynomolgus monkeys (two males and one female) were provided by Guangxi Nanning Tongling Shengwu Keji Youxian Gongsi, with production license SCXK Gui-2020-0002.
Compound 9: A certain amount of the test compound was separately weighed. 5% DMSO + 30% PG + 30% PEG400 + 35% normal saline were added to prepare a 0.4 mg/mL colorless and clear solution.
Compound 9: Administration dose was 1 mg/kg and administration volume was 2.5 mL/kg.
0.5 mL of blood samples were collected from the vein before administration and at 0.25, 0.5, 1.0, 2.0, 4.0, 6.0, 8.0, 11.0, and 24.0 hours after administration and placed in EDTA-K2 anticoagulant tubes, followed by centrifugation at 10000 rpm for 2 minutes (4°C). The plasma was separated within 1 hour and stored at -20°C or -80°C for analysis. The process from blood collection to centrifugation was operated under ice bath condition.
Determination of test compound contents in […] after administration of different compounds: Compound 9: 50 µL of the monkey plasma sample collected at each time point after administration was taken. 25 µL of an internal standard acetonitrile solution (tolbutamide, 1 ug/mL) was added, followed by 450 µL of an acetonitrile solution. The mixture was vortexed and mixed, followed by centrifugation at 3700 rpm for 10 min. The supernatant was taken for LC-MS/MS analysis.

T1 sequence (P43220 24-463): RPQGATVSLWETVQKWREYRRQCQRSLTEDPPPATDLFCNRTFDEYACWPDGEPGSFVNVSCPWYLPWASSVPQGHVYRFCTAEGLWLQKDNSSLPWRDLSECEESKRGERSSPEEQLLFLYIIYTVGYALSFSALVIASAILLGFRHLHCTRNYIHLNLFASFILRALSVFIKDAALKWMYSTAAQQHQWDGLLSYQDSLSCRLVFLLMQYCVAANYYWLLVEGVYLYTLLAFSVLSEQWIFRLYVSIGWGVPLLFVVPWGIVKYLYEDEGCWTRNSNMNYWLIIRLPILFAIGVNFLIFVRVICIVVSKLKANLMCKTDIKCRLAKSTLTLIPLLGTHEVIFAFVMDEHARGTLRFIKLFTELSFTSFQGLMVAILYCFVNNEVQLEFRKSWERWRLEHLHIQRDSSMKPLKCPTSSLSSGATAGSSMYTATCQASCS

Row | EC50 (hGLP-1 receptor) | Emax (hGLP-1 receptor) | Vd/F ([1]; read-out: Apparent volume of distribution Vz/F) | AUC(0-t) ([1]; read-out: Area under the curve AUC0-t) | bioavailability ([1]; read-out: Bioavailability F) | CL/F ([1]; read-out: Clearance CL/F) | half-life ([1]; read-out: Half life T1/2 (converted)) | Cmax ([1]; read-out: Plasma concentration Cmax) | Compound
1 | 0.05 nM | 18.56 fold |  |  |  |  |  |  | Cc1cc(-n2nc3c(c2-c2cncn(-c4ccc5c(cnn5C5CC5)c4)c2=O)[C@H](C)N(C(=O)c2cc4cc([C@H]5CCOC(C)(C)C5)ccc4n2[C@@]2(c4noc(=O)[nH]4)C[C@@H]2C)CC3)cc(C)c1F [Compound 41, 3-((1S,2S)-1-(2-((S)-3-(1-(1-cyclopropyl-1H-indazol-5-yl)-6-oxo-1,6-dihydropyrimidin-5-yl)-2-(4-fluoro-3,5-dimethylphenyl)-4-methyl-4,5,6,7-tetrahydro-2H-pyrazolo[4,3-c]pyridine-5-carbonyl)-5-((S)-2,2-dimethyltetrahydro-2H-pyran-4-yl)-1H-indol-1-yl)-2-methylcyclopropyl)-1,2,4-oxadiazol-5(4H)-one]
2 | 0.02 nM | 20.59 fold |  |  |  |  |  |  | COCCn1ncc2c(F)c3c(cc21)OC[C@H]1CN(c2c4c(nn2-c2cc(C)c(F)c(C)c2)CCN(C(=O)c2cc5cc([C@H]6CCOC(C)(C)C6)ccc5n2[C@@]2(c5noc(=O)[nH]5)C[C@@H]2C)[C@H]4C)C(=O)N31 [Compound 30, (R)-2-((S)-5-(5-((S)-2,2-dimethyltetrahydro-2H-pyran-4-yl)-1-((1S,2S)-2-methyl-1-(5-oxo-4,5-dihydro-1,2,4-oxadiazol-3-yl)cyclopropyl)-1H-indole-2-carbonyl)-2-(4-fluoro-3,5-dimethylphenyl)-4-methyl-4,5,6,7-tetrahydro-2H-pyrazolo[4,3-c]pyridin-3-yl)-10-fluoro-7-(2-methoxyethyl)-2,3,3a,4-tetrahydro-1H,7H-imidazo[1',5':4,5][1,4]oxazino[3,2-f]indazol-1-one]
3 | 0.02 nM | 21.19 fold |  |  |  |  |  |  | Cc1cc(-n2nc3c(c2N2C[C@@H]4COc5cc6c(cnn6CC6CC6)c(F)c5N4C2=O)[C@H](C)N(C(=O)c2cc4cc([C@H]5CCOC(C)(C)C5)ccc4n2[C@@]2(c4noc(=O)[nH]4)C[C@@H]2C)CC3)cc(C)c1F [Compound 51, (R)-7-(cyclopropylmethyl)-2-((S)-5-(5-((S)-2,2-dimethyltetrahydro-2H-pyran-4-yl)-1-((1S,2S)-2-methyl-1-(5-oxo-4,5-dihydro-1,2,4-oxadiazol-3-yl)cyclopropyl)-1H-indole-2-carbonyl)-2-(4-fluoro-3,5-dimethylphenyl)-4-methyl-4,5,6,7-tetrahydro-2H-pyrazolo[4,3-c]pyridin-3-yl)-10-fluoro-2,3,3a,4-tetrahydro-1H,7H-imidazo[1',5':4,5][1,4]oxazino[3,2-f]indazol-1-one]
4 | 0.06 nM | 18.96 fold | 6.12 L/kg | 1180 ng·h/mL | 44.5% | 12.4 mL/min/kg | 353 min | 178 ng/mL | Cc1cc(-n2nc3c(c2-c2cncn(-c4ccc5c(cnn5C)c4)c2=O)[C@H](C)N(C(=O)c2cc4cc([C@H]5CCOC(C)(C)C5)ccc4n2[C@@]2(c4noc(=O)[nH]4)C[C@@H]2C)CC3)cc(C)c1F [Compound 9, 3-((1S,2S)-1-(5-((S)-2,2-dimethyltetrahydro-2H-pyran-4-yl)-2-((S)-2-(4-fluoro-3,5-dimethylphenyl)-4-methyl-3-(1-(1-methyl-1H-indazol-5-yl)-6-oxo-1,6-dihydropyrimidin-5-yl)-4,5,6,7-tetrahydro-2H-pyrazolo[4,3-c]pyridine-5-carbonyl)-1H-indol-1-yl)-2-methylcyclopropyl)-1,2,4-oxadiazol-5(4H)-one]
5 | 0.04 nM | 18.87 fold |  |  |  |  |  |  | Cc1cc(-n2nc3c(c2N2C[C@@H]4COc5cc6c(cnn6C(C)(C)C)c(F)c5N4C2=O)[C@H](C)N(C(=O)c2cc4cc([C@H]5CCOC(C)(C)C5)ccc4n2[C@@]2(c4noc(=O)[nH]4)C[C@@H]2C)CC3)cc(C)c1F [Compound 50, (R)-7-(tert-butyl)-2-((S)-5-(5-((S)-2,2-dimethyltetrahydro-2H-pyran-4-yl)-1-((1S,2S)-2-methyl-1-(5-oxo-4,5-dihydro-1,2,4-oxadiazol-3-yl)cyclopropyl)-1H-indole-2-carbonyl)-2-(4-fluoro-3,5-dimethylphenyl)-4-methyl-4,5,6,7-tetrahydro-2H-pyrazolo[4,3-c]pyridin-3-yl)-10-fluoro-2,3,3a,4-tetrahydro-1H,7H-imidazo[1',5':4,5][1,4]oxazino[3,2-f]indazol-1-one]
6 | 0.03 nM | 18.06 fold |  |  |  |  |  |  | Cc1cc(-n2nc3c(c2N2C[C@@H]4COc5c(c(F)cc6c5cnn6C5CC5)N4C2=O)[C@H](C)N(C(=O)c2cc4cc([C@H]5CCOC(C)(C)C5)ccc4n2[C@@]2(c4noc(=O)[nH]4)C[C@@H]2C)CC3)cc(C)c1F [Compound 37, (R)-1-cyclopropyl-7-((S)-5-(5-((S)-2,2-dimethyltetrahydro-2H-pyran-4-yl)-1-((1S,2S)-2-methyl-1-(5-oxo-4,5-dihydro-1,2,4-oxadiazol-3-yl)cyclopropyl)-1H-indole-2-carbonyl)-2-(4-fluoro-3,5-dimethylphenyl)-4-methyl-4,5,6,7-tetrahydro-2H-pyrazolo[4,3-c]pyridin-3-yl)-10-fluoro-5,5a,6,7-tetrahydro-1H,8H-imidazo[1',5':4,5][1,4]oxazino[2,3-e]indazol-8-one]
7 | 0.03 nM | 18.51 fold |  |  |  |  |  |  | Cc1cc(-n2nc3c(c2N2C[C@@H]4COc5c(ccc6c5cnn6C5CC5)N4C2=O)[C@H](C)N(C(=O)c2cc4cc([C@H]5CCOC(C)(C)C5)ccc4n2[C@@]2(c4noc(=O)[nH]4)C[C@@H]2C)CC3)cc(C)c1F [Compound 24, (R)-1-cyclopropyl-7-((S)-5-(5-((S)-2,2-dimethyltetrahydro-2H-pyran-4-yl)-1-((1S,2S)-2-methyl-1-(5-oxo-4,5-dihydro-1,2,4-oxadiazol-3-yl)cyclopropyl)-1H-indole-2-carbonyl)-2-(4-fluoro-3,5-dimethylphenyl)-4-methyl-4,5,6,7-tetrahydro-2H-pyrazolo[4,3-c]pyridin-3-yl)-5,5a,6,7-tetrahydro-1H,8H-imidazo[1',5':4,5][1,4]oxazino[2,3-e]indazol-8-one]

Source: patent EP4813984A1 (Jiangsu Hengrui Pharmaceuticals Co., Ltd., priority 2023, dated 2025)
